Several values for one entry are separate records, joined by “and”; a condition that tells them apart may be missing. Equal entries are not always repeated.
What was measured:
S. pneumoniae 22257 = assay: Combination Time-kill kinetics; format: cell-based; conditions: alone or with Azithromycin 4 × MIC (0.12 ug/ml) or Cefuroxime 4 × MIC (8 ug/ml)
Method: (§1) As used herein, “synergy” refers to the in vitro effect of administration of a combination of an antibacterial agent such as a Fab I inhibiter, and antiinfective agent such that (1) the fractional inhibitory concentration (FIC) is less than or equal to 0.5 in an FIC assay described herein; or (2) there is at least a 100-fold (2 log10) increase in killing at 24 hours for the combination as compared with the bioactive agent alone in a time kill curve assay as described herein. An FIC of ≦0.5 is evidence of synergy. An additive response has an FIC value of >0.5 and less than or equal to 1, while an indifferent response has an FIC value of >1 and ≦2. An additive effect may still indicate that the combination of bioactive agent and cationic peptide are therapeutically useful.

E. faecalis A6221420 = assay: Combination Time-kill kinetics; format: cell-based; conditions: alone or with Meropenem 4 × MIC (16 ug/ml)
Method: as §1

S. pneumoniae 22425 = assay: Combination Time-kill kinetics; format: cell-based; conditions: alone or with Gatifloxacin 4 × MIC (2 ug/ml)
Method: as §1

[1] = test system: major pathogenic species tested; assay: Checkerboard combination studies of compound G and commercial antibiotics (FIG. 7); format: cell-based; conditions: all major pathogenic species tested
Method: Checkerboard experiments were performed and analyzed according to standard procedures as outlined below.

S. aureus 29213 = assay: checkerboard combination study (FIC index); format: cell-based, Staphylococcus aureus; design: key: FIC index = average of FICA+FICB (MIC combo/MIC alone)
Method: (§2) The combination experiments were performed and the results were interpreted using the checkerboard method as described in Eliopoulous, G. M., and R. C. Moellering, 1996, Antimicrobial combinations, p. 330-396, In V. Lorian (ed.), Antibiotics in laboratory medicine, 4th ed., The Williams & Wilkins Co., Baltimore, Md., in 96-well microtiter plates. Compound A was serially diluted along the x-axis of the test plate to a final volume of 50 μl, and compound B was serially diluted in a separate transfer plate. Dilutions in both plates were made in CAMHB (cation-adjusted Mueller Hinton broth) for Staphylococci and in CAMHB+5% sheep blood for Streptococci. Aliquots (50 μl) of Compound B were transferred to the test plate along the y-axis thereby achieving a checkerboard matrix of antimicrobial combinations (100 μl total volume) as in FIG. 4. The first column and last row (shaded in FIG. 4) contained only compound B or compound A, respectively. Plates were then inoculated with 10 μl of the test microorganism and MICs were determined according to NCCLS guidelines (see National Committee for Clinical Laboratory Standards, 2000, Methods for Dilution Antimicrobial Susceptibility Tests for Bacteria That Grow Aerobically—Fifth Edition, Approved Standard M7-A5, NCCLS, Wayne, Pa., USA.)
(§3) Data analysis was performed as follows and according to Eliopoulous, G. M., and R. C. Moellering, 1996, Antimicrobial combinations, p. 330-396, In V. Lorian (ed.), Antibiotics in laboratory medicine, 4th ed., The Williams & Wilkins Co., Baltimore, Md. First individual FIC values for each combination in a plate were calculated: FIC(Fractional Inhibitory Concentration)=FICA+FICB • FICA=MICA+B/MICA i.e. the MIC of combination of compound A+compound B divided by the MIC of compound A alone. • FICB=MICB+A/MICB i.e. the MIC of combination of compound B+compound A divided by the MIC of compound B alone.
(§4) FIC values were calculated only for combinations that enabled determination of a true MIC (e.g. not > or <=values). FIC indexes were then calculated as the average of individual FIC values for each combination plate.

S. aureus 43300 = assay: checkerboard combination study (FIC index); format: cell-based, Staphylococcus aureus; design: key: FIC index = average of FICA+FICB (MIC combo/MIC alone); conditions: S. aureus 43300 (MRSA)
Method: as §2, §3, §4

Q: `Cc1c(CN(C)C(=O)/C=C/c2cnc3c(c2)CCC(=O)N3)oc2ccccc12` [Compound G, (E)-N-methyl-N-(3-methylbenzofuran-2-ylmethyl)-3-(7-oxo-5,6,7,8-tetrahydro-1,8-naphthyridin-3-yl)acrylamide] was tested. Which “logCFU/ml at Time (hr): 0” value (S. pneumoniae 22257; Compound G 0.03 ug/ml) did it give?
A: 6.41 logCFU/ml and 6.20 logCFU/ml

Q: What about the “logCFU/ml at Time (hr): 3” value (S. pneumoniae 22257; Compound G 0.03 ug/ml) of the same compound?
A: 8.31 logCFU/ml and 8.15 logCFU/ml

Q: And the “logCFU/ml at Time (hr): 6” value (S. pneumoniae 22257; Compound G 0.03 ug/ml)?
A: 9.23 logCFU/ml and 9.35 logCFU/ml

Q: What about the “logCFU/ml at Time (hr): 8” value (S. pneumoniae 22257; Compound G 0.03 ug/ml) of the same compound?
A: 9.32 logCFU/ml

Q: And the “logCFU/ml at Time (hr): 24” value (S. pneumoniae 22257; Compound G 0.03 ug/ml)?
A: 9.68 logCFU/ml and 9.65 logCFU/ml

Q: What about the “ΔlogCFU/ml (24-0 hr)” value (S. pneumoniae 22257; Compound G 0.03 ug/ml) of the same compound?
A: 3.26 logCFU/ml and 3.45 logCFU/ml

Q: And the “logCFU/ml at Time (hr): 0” value (S. pneumoniae 22257; Compound G 1 ug/ml)?
A: 6.43 logCFU/ml and 6.30 logCFU/ml

Q: And the “logCFU/ml at Time (hr): 3” value (S. pneumoniae 22257; Compound G 1 ug/ml)?
A: 8.30 logCFU/ml and 8.17 logCFU/ml

Q: What about the “logCFU/ml at Time (hr): 6” value (S. pneumoniae 22257; Compound G 1 ug/ml) of the same compound?
A: 9.33 logCFU/ml and 9.20 logCFU/ml

Q: And the “logCFU/ml at Time (hr): 8” value (S. pneumoniae 22257; Compound G 1 ug/ml)?
A: 9.47 logCFU/ml and 9.41 logCFU/ml

Q: What about the “logCFU/ml at Time (hr): 24” value (S. pneumoniae 22257; Compound G 1 ug/ml) of the same compound?
A: 9.68 logCFU/ml and 9.71 logCFU/ml

Q: And the “ΔlogCFU/ml (24-0 hr)” value (S. pneumoniae 22257; Compound G 1 ug/ml)?
A: 3.25 logCFU/ml and 3.40 logCFU/ml

Q: And the “logCFU/ml at Time (hr): 0” value (E. faecalis A6221420; Compound G 0.03 ug/ml)?
A: 5.10 logCFU/ml

Q: What about the “logCFU/ml at Time (hr): 2” value (E. faecalis A6221420; Compound G 0.03 ug/ml) of the same compound?
A: 6.03 logCFU/ml

Q: And the “logCFU/ml at Time (hr): 4” value (E. faecalis A6221420; Compound G 0.03 ug/ml)?
A: 6.42 logCFU/ml

Q: And the “logCFU/ml at Time (hr): 8” value (E. faecalis A6221420; Compound G 0.03 ug/ml)?
A: 9.88 logCFU/ml

Q: What about the “logCFU/ml at Time (hr): 24” value (E. faecalis A6221420; Compound G 0.03 ug/ml) of the same compound?
A: 9.91 logCFU/ml

Q: And the “ΔlogCFU/ml (24-0 hr)” value (E. faecalis A6221420; Compound G 0.03 ug/ml)?
A: 4.81 logCFU/ml

Q: And the “logCFU/ml at Time (hr): 0” value (E. faecalis A6221420; Compound G 1 ug/ml)?
A: 5.12 logCFU/ml

Q: And the “logCFU/ml at Time (hr): 2” value (E. faecalis A6221420; Compound G 1 ug/ml)?
A: 5.93 logCFU/ml

Q: What about the “logCFU/ml at Time (hr): 4” value (E. faecalis A6221420; Compound G 1 ug/ml) of the same compound?
A: 6.53 logCFU/ml

Q: What about the “logCFU/ml at Time (hr): 8” value (E. faecalis A6221420; Compound G 1 ug/ml) of the same compound?
A: 9.76 logCFU/ml

Q: And the “logCFU/ml at Time (hr): 24” value (E. faecalis A6221420; Compound G 1 ug/ml)?
A: 9.91 logCFU/ml

Q: And the “ΔlogCFU/ml (24-0 hr)” value (E. faecalis A6221420; Compound G 1 ug/ml)?
A: 4.79 logCFU/ml

Q: What about the “logCFU/ml at Time (hr): 0” value (S. pneumoniae 22425; Compound G 0.03 ug/ml) of the same compound?
A: 5.20 logCFU/ml

Q: What about the “logCFU/ml at Time (hr): 2” value (S. pneumoniae 22425; Compound G 0.03 ug/ml) of the same compound?
A: 5.63 logCFU/ml

Q: And the “logCFU/ml at Time (hr): 6” value (S. pneumoniae 22425; Compound G 0.03 ug/ml)?
A: 7.25 logCFU/ml

Q: What about the “logCFU/ml at Time (hr): 24” value (S. pneumoniae 22425; Compound G 0.03 ug/ml) of the same compound?
A: 7.61 logCFU/ml

Q: And the “ΔlogCFU/ml (24-0 hr)” value (S. pneumoniae 22425; Compound G 0.03 ug/ml)?
A: 2.41 logCFU/ml

Q: And the “logCFU/ml at Time (hr): 0” value (S. pneumoniae 22425; Compound G 1 ug/ml)?
A: 5.12 logCFU/ml

Q: What about the “logCFU/ml at Time (hr): 2” value (S. pneumoniae 22425; Compound G 1 ug/ml) of the same compound?
A: 5.61 logCFU/ml

Q: And the “logCFU/ml at Time (hr): 6” value (S. pneumoniae 22425; Compound G 1 ug/ml)?
A: 7.18 logCFU/ml

Q: What about the “logCFU/ml at Time (hr): 24” value (S. pneumoniae 22425; Compound G 1 ug/ml) of the same compound?
A: 7.58 logCFU/ml

Q: And the “ΔlogCFU/ml (24-0 hr)” value (S. pneumoniae 22425; Compound G 1 ug/ml)?
A: 2.45 logCFU/ml

Q: What about the “antagonism in compound G combinations” value [1] of the same compound?
A: did not show antagonism

Q: What about the “FIC Index” value (S. aureus 29213; with Cefuroxime) of the same compound?
A: 0.8

Q: And the “FIC Index” value (S. aureus 29213; with Cloxacillin)?
A: 2

Q: And the “FIC Index” value (S. aureus 29213; with Erythromycin)?
A: 2

Q: And the “FIC Index” value (S. aureus 29213; with Gentamcin)?
A: 0.3

Q: What about the “FIC Index” value (S. aureus 29213; with Levofloxacin) of the same compound?
A: 1

Q: And the “FIC Index” value (S. aureus 29213; with Linezolid)?
A: 0.5

Q: And the “FIC Index” value (S. aureus 29213; with Nafcillin)?
A: 0.8

Q: And the “FIC Index” value (S. aureus 29213; with Rifampicin)?
A: 0.8

Q: And the “FIC Index” value (S. aureus 29213; with Tetracycline)?
A: 2

Q: What about the “FIC Index” value (S. aureus 29213; with Vancomycin) of the same compound?
A: 1

Q: And the “FIC Index” value (S. aureus 43300; with Cefuroxime)?
A: 0.5

Q: And the “FIC Index” value (S. aureus 43300; with Cloxacillin)?
A: 0.75

Q: What about the “FIC Index” value (S. aureus 43300; with Gentamcin) of the same compound?
A: 0.4

Q: And the “FIC Index” value (S. aureus 43300; with Levofloxacin)?
A: 2

Q: And the “FIC Index” value (S. aureus 43300; with Linezolid)?
A: 0.5

Q: And the “FIC Index” value (S. aureus 43300; with Nafcillin)?
A: 0.7

Q: And the “FIC Index” value (S. aureus 43300; with Rifampicin)?
A: 0.75

Q: What about the “FIC Index” value (S. aureus 43300; with Tetracycline) of the same compound?
A: 1

Q: What about the “FIC Index” value (S. aureus 43300; with Vancomycin) of the same compound?
A: 0.75
